In data set [1] the test system is zebrafish (Danio rerio) embryo. Description: zebrafish embryo teratogenicity assay. Particulars: for percent deformity: 15, 30 and 60 µM (≥ 15 µM); for EC50: read-out: EC50 (for teratogenicity) and LC50, equivalently calculated; for EC50/LC50: retinoids, deformity equivalent to mortality, probit analysis.
The format of data set [2] is physicochemical. The following applies: mild heating; standing at room temperature and ambient light.
Another data set has as its system RAR. The following applies: ref Repa et al., 1993; cited from earlier work.
The subject of data set [3] is zebrafish (Danio rerio) embryo. Particulars: ref Hermann, 1995; Selderslaghs et al., 2009; Wang et al., 2014; cited from earlier work.

Like-named read-outs stand apart in the source and are kept apart here.

As usually defined, the EC50 is the midpoint of the concentration-response curve.

Turning to `CC1=C(/C=C/C(C)=C/C=C/C(C)=C/C=C/C=C(C)/C=C/C=C(C)/C=C/C2=C(C)C(=O)CCC2(C)C)C(C)(C)CCC1=O` [canthaxanthin], in data set [1] (30 µM, 3 dpf), the “observed deformities (Fig. 5)” value is “head and eye hypoplasia and truncated tail”. For the same compound, the “percent deformity (development toxicity)” value in data set [1] (2 dpf, 60 µM) is given as “approximately 89%”. This compound also returned a percent deformity in data set [1] (by 3 dpf) of 100%. Further, in data set [1] (at 5 dpf, ± standard error), the EC50 was 8.7 ± 1.8 µM.

On to `CC1=C(/C=C/C(C)=C/C=C/C(C)=C/CO)C(C)(C)CCC1` [retinol], for which, in data set [1], the EC50/LC50 is reported as 9.2 ± 7.6 µM.

On to 4-Ketomyxol 2′-glycoside [Compound 2], for which the “observed deformities (Fig. 5)” value in data set [1] (3 and 5 dpf) is “head and eye hypoplasia and truncated tail”. Moreover, in data set [1] (by 3 dpf), the “additional concentration with significant percent deformity” value turned out to be 5 µM, the “concentration showing pronounced developmental dysfunction” value is ≥ 5 µM and the percent deformity was found to be 100%. For the same compound, in data set [1] (at 5 dpf, ± standard error), the EC50 was 1.8 ± 0.2 µM. Further, the stability entry in data set [2] is “highly unstable”.

As for `CC1=C(/C=C/C(C)=C/C=C/C(C)=C/C=O)C(C)(C)CCC1` [retinal, all-trans retinaldehyde], the EC50/LC50 in data set [1] amounted to 1.8 ± 0.7 µM. Also, the “binding affinity to RAR” value in the data set with RAR is on record as “essentially no binding affinity”.

As for `CC1=C(/C=C/C(C)=C/C=C/C(C)=C/C=C/C=C(C)/C=C/C=C(C)/C=C/C2=C(C)C[C@@H](O)CC2(C)C)C(C)(C)C[C@H](O)C1` [zeaxanthin], the “observed deformities (Fig. 5)” value in data set [1] (60 µM, 3 dpf) is recorded as “little effect”. Also, the embryo development result in data set [1] (3–5 dpf, 60 µM) is given as “developed normally”. In addition, the teratogenicity entry in data set [1] (5-day exposure studies, 1-60 µM) was “no teratogenicity was observed”.

As to “4-Hydroxymyxol 2′-glycoside [Compound 3]”, the “teratogenicity (qualitative, bioassay-guided fractionation)” value in data set [1] (in vivo) is listed as “single bioactive component”.

As to `CC1=C(/C=C/C(C)=C/C=C/C(C)=C/C=C/C=C(C)/C=C/C=C(C)/C=C/C2=C(C)CCCC2(C)C)C(C)(C)CCC1` [β-carotene], in data set [1] (30 µM, 5 dpf), the “observed deformities (Fig. 5)” value is “truncated tail and pericardial edema”. Also, the EC50 in data set [1] (Danio rerio) is 23.5 ± 8.9 µM.

As for `CC1=C(/C=C/C(C)=C/C=C/C(C)=C/C=C/C=C(C)/C=C/C=C(\C)C=O)C(C)(C)CCC1` [β-apo-8’carotenal, trans-β-apo-8’carotenal], the teratogenicity result in data set [1] (at 3 dpf) is listed as “no teratogenicity was observed”. In data set [1] (at 5 dpf, not significantly different from controls), the “developmental toxicity (percent deformity)” value was ~ 22%.

In the case of `CC1=C(/C=C/C(C)=C/C=C/C(C)=C/C=C/C=C(C)/C=C/C=C(C)/C=C/C=C(C)/C=C/[C@H](O[C@@H]2O[C@@H](C)[C@@H](O)[C@@H](O)[C@@H]2O)C(C)(C)O)C(C)(C)C[C@H](O)C1` [Compound 1, Myxol 2′-glycoside], the “observed deformities (Fig. 5)” value in data set [1] (5 µM, 3 and 5 dpf) was “head and eye hypoplasia, truncated tail and pericardial edema”. Further, in data set [1] (by 3 dpf), the “concentration showing pronounced developmental dysfunction” value is ≥ 5 µM and the percent deformity is recorded as 100%. Moreover, in data set [1] (at 5 dpf, ± standard error), the EC50 is 2.4 ± 0.9 µM. The stability entry in data set [2] is given as “highly unstable”.

On to `CC1=C[C@H](O)CC(C)(C)[C@H]1/C=C/C(C)=C/C=C/C(C)=C/C=C/C=C(C)/C=C/C=C(C)/C=C/C1=C(C)C[C@@H](O)CC1(C)C` [lutein], for which the “observed deformities (Fig. 5)” value in data set [1] (30 µM) is “head and eye hypoplasia and truncated tail”. Moreover, the EC50 in data set [1] (Danio rerio) is 4.7 ± 3 µM. The percent deformity in data set [1] (by 3 dpf) was determined as 100%.

As to `CC1=C(/C=C/C(C)=C/C=C/C(C)=C/C(=O)O)C(C)(C)CCC1` [RA, all-trans retinoic acid], in data set [1] (1 µM), the “teratogenicity at lowest concentration tested” value is listed as “effectively lethal”. Also, the “observed deformities (Fig. 5)” value in data set [1] (1 µM, 3 dpf and 5 dpf) is “severely arrested development of the body axis including head and eye hypoplasia and truncated tail”. In addition, the “LC50 and EC50 (for teratogenicity) previously reported in the zebrafish embryo” value in data set [3] was “nanomolar to sub-nanomolar range”.

The values are drawn from paper PMC5835316 (Chemosphere, 2017).
